The values below are quoted from earlier work in patent publication US5691373A, “Nonpeptide endothelin antagonists I” (Warner-Lambert Company, priority 1995, dated 1997).

For one data set, the system named is ETA. Conditions: cited from earlier work.
Data set [1] relates to cerebral vasospasm. Conditions: in vivo; cited from earlier work.
The subject of another data set is endotoxic shock. Conditions: cited from earlier work.
Data set [2] has as its system ET-1 induced bronchoconstriction and tracheal smooth muscle contraction. Conditions: allergic sheep; cited from earlier work.
The test system of data set [3] is cerebral vasospasm. Conditions: rat; cited from earlier work.
For data set [4], the system named is cerebral vasospasm. To be noted: rabbit; cited from earlier work.

Like-named read-outs stand apart in the source and are kept apart here. Where a SMILES comes first, the peptide text is derived from it. [ ]: non-standard residue; d: D form.

Consider `Cc1noc(NS(=O)(=O)c2cccc3c(N(C)C)cccc23)c1C` [5-(Dimethylemino)-N-(3,4-dimethyl-5-isoxazolyl)-1-naphthalenesulfonamide], for which the oral antihypertensive effect result in the data set with ETA is listed as “demonstrated an oral antihypertensive effect”.

On to `CC(C)C[C@@H]1NC(=O)[C@@H](C(C)C)NC(=O)[C@@H]2CCCN2C(=O)[C@@H](CC(=O)O)NC(=O)[C@@H](Cc2c[nH]c3ccccc23)NC1=O` [BQ-123] (cyclo(L[dW][dD]P[dV])), for which, in the data set on cerebral vasospasm [1], the “early cerebral vasospasm following subarachnoid hemorrhage” value was “prevent early cerebral vasospasm following subarachnoid hemorrhage”. Also, in the data set on endotoxic shock, the survival rate result was “significantly increased the survival rate”. The “ET-1 induced bronchoconstriction and tracheal smooth muscle contraction” value in data set [2] is “block ET-1 induced bronchoconstriction and tracheal smooth muscle contraction”. The “early cerebral vasospasm following SAH” value with cerebral vasospasm [3] and with cerebral vasospasm [4] was “prevents early cerebral vasospasm following SAH” each time.
